Experimental findings from the supplement of paper PMC5844555 are described below.

Holding throughout (assay): 3' UTR reporter interaction score (median-centred robust z-score of log2 firefly/Renilla activity); higher = less repression of the 3' UTR reporter
Conditions in all cases: HEK293T; 48 h

The subject of one series is RB1. In outline:
(§1)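 In at least two independent screens, HEK293T cells in 96-well plates (10,000/well) were co-transfected with DharmaFECT Duo using 100 ng firefly luc2P reporter with the gene's 3' UTR, 20 ng Renilla pRL-TK control and 2.5 pmol miRNA mimic, and dual-luciferase activities were read at 48 h. The interaction score, averaged across screens, is the per-plate robust z-score (median, median absolute deviation) of the log firefly/Renilla ratio, median-centred per miRNA, with more negative indicating interaction.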

In another series the test system is TP53. In outline:
as §1

In another series the test system is MYB. The essentials:
as §1

The next series concerns HRAS. The essentials:
as §1

A further series has as its system EZH2. The essentials:
as §1

The test system of a further series is NOTCH1. The essentials: as §1
Another series deals with ZEB2. The essentials:
as §1

Another series relates to FBXW7. The essentials: as §1
The test system of a further series is BRCA2. The essentials:
as §1

A further series relates to MYT1L. The essentials: as §1
For another series, the system named is MYCN. The essentials: as §1
A further series has as its system PHOX2B. The essentials:
as §1

For another series, the system named is PHF6. In outline: as §1
The test system of the next series is MYC. The essentials:
as §1

In the case of UAGUACCAGUACCUUGUGUUCA, the “3' UTR reporter interaction score” value is 0.0822 in the series on RB1; -0.292 with TP53; -2.96 with MYB; 0.088 in the series on HRAS; 0.789 with EZH2; -0.471 in the series with NOTCH1. In addition, the “3' UTR reporter interaction score” value in the series on ZEB2 was 1.08; in the series on FBXW7, 0.884; with BRCA2, -0.45; in the series with MYT1L it was 0.421; with MYCN, 0.174; with PHOX2B, -0.362. Moreover, the “3' UTR reporter interaction score” value in the series with PHF6 is -0.322; in the series with MYC, 0.000513.
As to AGGGUAAGCUGAACCUCUGAU, the “3' UTR reporter interaction score” value with RB1 is -1.03; in the series with TP53, 0.182; with MYB, 0.366; with HRAS, -0.74; with EZH2 it was -0.149; in the series on NOTCH1, -0.542. In addition, the “3' UTR reporter interaction score” value was -0.308 with ZEB2; 2.4 in the series with FBXW7; 0.0158 with BRCA2; 0.432 in the series on MYT1L; 1.35 in the series with MYCN; 1.64 with PHOX2B. The “3' UTR reporter interaction score” value with PHF6 is -0.384; in the series with MYC, -0.643.
For UGAGAACUGAAUUCCAUGGGUU, the “3' UTR reporter interaction score” value with RB1 is -0.62; in the series on TP53, -0.136; in the series with MYB, 1.11; with HRAS it was -0.164; in the series on EZH2, 0.673; in the series with NOTCH1, -0.245. Moreover, the “3' UTR reporter interaction score” value in the series on ZEB2 was 1.41; in the series with FBXW7 it was -0.989; in the series with BRCA2 it was -1.66; with MYT1L, 0.806; with MYCN it was 0.702; in the series on PHOX2B it was -1.1. Besides, the “3' UTR reporter interaction score” value is 1.46 in the series with PHF6 and -0.0139 with MYC.
Take UGGAGGAGAAGGAAGGUGAUG: the “3' UTR reporter interaction score” value was 1.82 in the series with RB1; -0.557 in the series on TP53; 1.88 with MYB; -0.351 in the series on HRAS; -2.61 in the series on EZH2; -0.968 in the series with NOTCH1. The “3' UTR reporter interaction score” value with ZEB2 is 3.77; with FBXW7, -0.125; in the series with BRCA2, -2.61; in the series with MYT1L, 2.74; with MYCN, 0.481; in the series with PHOX2B it was 2.06. Moreover, the “3' UTR reporter interaction score” value in the series on PHF6 is -0.248; in the series on MYC, -2.42.
As for UCAGAACAAAUGCCGGUUCCCAGA, the “3' UTR reporter interaction score” value is -0.316 in the series with RB1; -1.5 with TP53; 0.483 in the series with MYB; 1.03 with HRAS; 0.61 in the series on EZH2; -0.509 with NOTCH1. The “3' UTR reporter interaction score” value was 0.0144 in the series with ZEB2; 0.465 with FBXW7; -0.146 in the series on BRCA2; -0.318 in the series with MYT1L; 0.0784 in the series on MYCN; -0.368 in the series with PHOX2B. The figures for the “3' UTR reporter interaction score” value with PHF6 and with MYC were 0.882 and 0.178, respectively.
GCUGGGCAGGGCUUCUGAGCUCCUU: the “3' UTR reporter interaction score” value in the series on RB1 was 0.659; in the series with TP53, -0.0785; in the series with MYB it was 0.00877; in the series on HRAS, -0.298; in the series on EZH2 it was -0.0238; with NOTCH1 it was -0.244. In addition, the “3' UTR reporter interaction score” value in the series with ZEB2 was 0.0169; with FBXW7, -0.37; in the series on BRCA2, -0.0026; with MYT1L it was -0.4; in the series on MYCN it was 0.117; with PHOX2B it was 1.06. Besides, the figures for the “3' UTR reporter interaction score” value with PHF6 and with MYC were 0.53 and -0.481, respectively.
Take UGUGCAAAUCCAUGCAAAACUGA: the “3' UTR reporter interaction score” value with RB1 was 0.608; with TP53 it was 0.0709; in the series on MYB, -1.86; in the series on HRAS it was -1.63; in the series with EZH2, 0.306; with NOTCH1, -0.355. The “3' UTR reporter interaction score” value with ZEB2 was -2.12; in the series with FBXW7 it was 0.561; in the series with BRCA2 it was -0.438; with MYT1L it was -0.216; with MYCN, -3.09; with PHOX2B it was -0.753. Also, the “3' UTR reporter interaction score” value amounted to 0.456 in the series on PHF6 and 0.638 with MYC.
Take GUGCAUUGUAGUUGCAUUG: the “3' UTR reporter interaction score” value with RB1 was -0.339; with TP53 it was 0.444; in the series with MYB, 0.56; in the series on HRAS, -0.432; with EZH2, -0.326; in the series with NOTCH1, 0.471. The “3' UTR reporter interaction score” value is -0.884 with ZEB2; 0.387 in the series on FBXW7; -0.383 with BRCA2; -0.399 with MYT1L; -0.218 with MYCN; 1.4 in the series on PHOX2B. The “3' UTR reporter interaction score” value in the series with PHF6 was -0.0198; with MYC, -0.88.
Regarding AAGCUGCCAGUUGAAGAACUGU, the “3' UTR reporter interaction score” value with RB1 is 0.935; in the series with TP53, -0.365; with MYB, 0.23; in the series with HRAS it was 0.475; in the series with EZH2, -0.11; with NOTCH1, 1.36. Also, the “3' UTR reporter interaction score” value in the series on ZEB2 is 0.607; in the series with FBXW7, -0.354; in the series with BRCA2, -0.407; with MYT1L, -1.31; in the series with MYCN, -0.291; in the series with PHOX2B it was 0.0996. In addition, the “3' UTR reporter interaction score” value is -0.206 in the series on PHF6 and -0.252 in the series with MYC.
